Reference: PubChem BioAssay (NCI)
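How tested: cells in 96-well plates exposed to compound for 48 hours at five concentrations. GI50 is the concentration that inhibits growth by half. TGI is the concentration that stops growth completely.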

Experiments:
Experiment in all cases: NCI anticancer screen, dose series, 48 h
[1] = tested on: MALME-3M melanoma
[2] = tested on: BT-549 breast
[3] = tested on: OVCAR-5 ovarian
[4] = tested on: NCI-H23 lung
[5] = tested on: MOLT-4 leukemia
[6] = tested on: SK-OV-3 ovarian
[7] = tested on: HOP-92 NSCLC
[8] = tested on: SK-MEL-2 melanoma
[9] = tested on: SK-MEL-5 melanoma
[10] = tested on: HCT-15 colon
[11] = tested on: SF-295 CNS
[12] = tested on: SF-539 CNS
[13] = tested on: UACC-257 melanoma
[14] = tested on: SK-MEL-28 melanoma

| SMILES | TGI [1] | TGI [2] | TGI [3] | TGI [4] | TGI [5] | TGI [6] | TGI [7] | TGI [8] | TGI [9] | TGI [10] | TGI [11] | TGI [12] | TGI [13] | TGI [14] | GI50 [4] | GI50 [5] | GI50 [6] | GI50 [8] | GI50 [10] |
| --- | --- | --- | --- | --- | --- | --- | --- | --- | --- | --- | --- | --- | --- | --- | --- | --- | --- | --- | --- |
| CCCCOc1ccc2c(c1)CC[C@@H]1[C@@H]2CC[C@]2(C)C(=O)N(CCCC)C(=O)C[C@@H]12 | > 100 µM | > 100 µM | > 100 µM | > 100 µM | > 100 µM | > 100 µM | > 100 µM | > 100 µM | > 100 µM | > 100 µM | > 100 µM |  |  |  |  |  |  |  |  |
| CCOC(=O)C1=C(c2ccccc2)C12N(Cc1ccccc1)C(=O)C2(c1ccccc1)c1ccccc1 (stereo unspecified) | > 100 µM | > 100 µM | > 100 µM | > 100 µM | > 100 µM | > 100 µM | 87.5 µM | 80 µM |  | > 100 µM | > 100 µM | > 100 µM | > 100 µM | > 100 µM |  |  |  |  |  |
| N#Cc1ccc(C2Oc3ccc(Cl)cc3C=C2[N+](=O)[O-])cc1 (stereo unspecified) | 4.79 µM | 1.13 µM | 3.98 µM | 3.23 µM | 4.24 µM | 5.57 µM | 2.83 µM | 4.09 µM | 2.68 µM | 4.12 µM | 9.15 µM | 3.84 µM | 6.75 µM | 3.31 µM |  |  |  |  |  |
| Cc1ccc(C#CS(=O)(=O)C(F)(F)F)cc1 | > 100 µM |  | > 100 µM | > 100 µM | > 100 µM | > 100 µM | > 100 µM | > 100 µM | > 100 µM | > 100 µM | > 31.6 µM | > 100 µM | > 100 µM | > 100 µM |  |  |  |  |  |
| COc1cc(-c2nc3cc(Cl)c(Cl)cc3[nH]2)ccc1OCC(=O)N=Nc1c(O)[nH]c2ccc(Cl)cc12 |  |  |  | 3.09 µM | 1.59 µM | 4.57 µM |  | 2.93 µM |  | > 100 µM |  |  |  |  | 0.489 µM | 0.321 µM | 1.83 µM | 1.28 µM | > 100 µM |
